Data taken from the NIST ThermoML archive (doi:10.1016/j.jct.2015.08.002).
± gives the expanded uncertainty stated by the source.

Experiment: mn = molality of the nth substance listed, in mol/kg
Settings: 298 K, Wilhelmi plate tensiometer

CCCCCCCCCCCC(=O)[O-].[Na+] [sodium dodecanoate] + O
Settings | surface tension liquid-gas [mN/m]
m1 = 0.001 | 64.1 ± 2
m1 = 0.002 | 62.2 ± 2
m1 = 0.003 | 57.6 ± 2
m1 = 0.004 | 54.4 ± 2
m1 = 0.005 | 54.5 ± 2
m1 = 0.006 | 49.9 ± 2
m1 = 0.007 | 45.8 ± 2
m1 = 0.008 | 44.9 ± 2
m1 = 0.009 | 44 ± 2
m1 = 0.01 | 44.2 ± 2
m1 = 0.0105 | 41.7 ± 2
m1 = 0.011 | 41.6 ± 2
m1 = 0.012 | 40.9 ± 2
m1 = 0.013 | 37.4 ± 2
m1 = 0.014 | 37.3 ± 2
m1 = 0.015 | 37.9 ± 2

CCCCCCCCCCCCP(=O)([O-])[O-].[Na+].[Na+] [sodium dodecylphosphonate] + O
Settings | surface tension liquid-gas [mN/m]
m1 = 0.002 | 66.6 ± 2
m1 = 0.004 | 58.5 ± 2
m1 = 0.006 | 52.9 ± 2
m1 = 0.008 | 53.5 ± 2
m1 = 0.01 | 52.4 ± 2
m1 = 0.012 | 49.6 ± 2
m1 = 0.014 | 47.4 ± 2
m1 = 0.016 | 44.4 ± 2
m1 = 0.017 | 44 ± 2
m1 = 0.0175 | 40.9 ± 2
m1 = 0.018 | 40.1 ± 2
m1 = 0.0185 | 39.4 ± 2
m1 = 0.019 | 40.4 ± 2
m1 = 0.02 | 39.3 ± 2
m1 = 0.021 | 39.6 ± 2
m1 = 0.025 | 38.2 ± 2
m1 = 0.04 | 36.9 ± 2
m1 = 0.05 | 39.3 ± 2

CCCCCCCC/C=C\CCCCCCCC(=O)[O-].[Na+] [sodium oleate] + O
Settings | surface tension liquid-gas [mN/m]
m1 = 5e-06 | 62.8 ± 2
m1 = 1e-05 | 58 ± 2
m1 = 2e-05 | 51.8 ± 2
m1 = 3e-05 | 51.2 ± 2
m1 = 4e-05 | 50.7 ± 2
m1 = 5e-05 | 49.9 ± 2
m1 = 0.0001 | 42 ± 2
m1 = 0.0003 | 32.9 ± 2
m1 = 0.0005 | 29.4 ± 2
m1 = 0.0009 | 26.6 ± 2
m1 = 0.0013 | 25.6 ± 2
m1 = 0.0015 | 25.4 ± 2
m1 = 0.0018 | 25.1 ± 2
m1 = 0.002 | 25.2 ± 2
m1 = 0.003 | 25.1 ± 2
